26 compounds from US10899759B2, “Positive allosteric modulators of the muscarinic acetylcholine receptor M1” (Vanderbilt University, priority 2016, dated 2021) can be followed below.

This experiment addresses T1, human mAChR M1 (Homo sapiens, UniProt P11229).
T1 construct: host or cells: CHO-K1
T1 sequence (P11229 1-460): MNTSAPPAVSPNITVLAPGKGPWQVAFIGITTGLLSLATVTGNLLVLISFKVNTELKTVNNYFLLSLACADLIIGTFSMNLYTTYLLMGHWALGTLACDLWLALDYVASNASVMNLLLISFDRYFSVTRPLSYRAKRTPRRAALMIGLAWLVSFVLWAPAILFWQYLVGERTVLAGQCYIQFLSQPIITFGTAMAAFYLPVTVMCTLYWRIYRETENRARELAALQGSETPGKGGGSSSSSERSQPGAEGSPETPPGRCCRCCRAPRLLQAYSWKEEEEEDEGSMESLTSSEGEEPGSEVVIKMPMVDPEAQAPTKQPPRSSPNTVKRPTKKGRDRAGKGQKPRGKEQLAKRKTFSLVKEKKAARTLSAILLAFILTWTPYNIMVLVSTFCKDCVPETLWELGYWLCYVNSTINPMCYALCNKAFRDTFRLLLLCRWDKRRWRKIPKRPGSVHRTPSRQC
Nature of the experiment: mAChR M1 cell-based functional assay (calcium mobilization, Fluo-4, FDSS). The conditions noted are these: CHO-K1 cells stably expressing hM1; for Emax: EC20 acetylcholine response, read-out: Human M1 Emax; for EC50: positive allosteric modulator activity as increase in the EC20 acetylcholine response. The method, boiled down:
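CHO-K1 cells stably expressing muscarinic receptor, loaded with Fluo-4; 11-point 1:3 compound series added and calcium flux read over 300 s at 1 Hz. Agonism from direct calcium rise, PAM activity as potentiation of EC20 acetylcholine, antagonism as decrease of EC80 acetylcholine; four-parameter logistic fits.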
For orientation: Calcium assays in cells follow changes in intracellular calcium, usually with a dye or a luminescent sensor.

For orientation: Emax means the maximal effect, on the per cent scale that the assay sets. In general, EC50 refers to the midpoint of the concentration-response curve. With `Cn1ccc(-c2ccc(Cc3cc(C(=O)NCC4CCOCC4)nc4sccc34)cn2)n1` [Compound 107, 4-[[6-(1-methylpyrazol-3-yl)-3-pyridyl]methyl]-N-(tetrahydropyran-4-ylmethyl)thieno[2,3-b]pyridine-6-carboxamide], the Emax stood at 57.3% and the EC50 worked out at 0.09 µM.

With `Cn1ccc(-c2ccc(Cc3cc(C(=O)NCC4CCOC4)nc4sccc34)cn2)n1` (stereo not drawn) [Compound 108, 4-[[6-(1-methylpyrazol-3-yl)-3-pyridyl]methyl]-N-(tetrahydrofuran-3-ylmethyl)thieno[2,3-b]pyridine-6-carboxamide], the Emax was 59.4% and the EC50 worked out at 0.15 µM.

Turning to `Cn1ccc(-c2ccc(Cc3cc(C(=O)NC4CC5(COC5)C4)nc4sccc34)cn2)n1` [Compound 109, 4-[[6-(1-methylpyrazol-3-yl)-3-pyridyl]methyl]-N-(2-oxaspiro[3.3]heptan-6-yl)thieno[2,3-b]pyridine-6-carboxamide], the Emax was 56.8% and the EC50 stood at 0.15 µM.

On to `Cn1ccc(-c2ccc(Cc3cc(C(=O)NC4CC(F)C4)nc4sccc34)cn2)n1` (stereo not drawn) [Compound 110, N-(3-fluorocyclobutyl)-4-[[6-(1-methylpyrazol-3-yl)-3-pyridyl]methyl]thieno[2,3-b]pyridine-6-carboxamide], for which the Emax was 58.4% and the EC50 amounted to 0.06 µM.

On to `COCCNC(=O)c1cc(Cc2ccc(-c3ccn(C)n3)nc2)c2ccsc2n1` [Compound 111, N-(2-methoxyethyl)-4-[[6-(1-methylpyrazol-3-yl)-3-pyridyl]methyl]thieno[2,3-b]pyridine-6-carboxamide], for which the Emax is 63.2% and the EC50 was 0.37 µM.

`COCC(C)NC(=O)c1cc(Cc2ccc(-c3ccn(C)n3)nc2)c2ccsc2n1` (stereo not drawn) [Compound 112, N-(2-methoxy-1-methyl-ethyl)-4-[[6-(1-methylpyrazol-3-yl)-3-pyridyl]methyl]thieno[2,3-b]pyridine-6-carboxamide]: the Emax turned out to be 59.5% and the EC50 was found to be 0.39 µM.

For the compound `Cn1cc(-c2ccc(Cc3cc(C(=O)N[C@H]4CCCC[C@@H]4O)nc4sccc34)cn2)cn1` [Compound 113, N-[(1S,2S)-2-hydroxycyclohexyl]-4-[[6-(1-methylpyrazol-4-yl)-3-pyridyl]methyl]thieno[2,3-b]pyridine-6-carboxamide], the maximal response (Emax) was 60.5% and the EC50 is 0.81 µM.

As for `Cn1cc(-c2ccc(Cc3cc(C(=O)NC4CCOCC4)nc4sccc34)cn2)cn1` [Compound 114, 4-[[6-(1-methylpyrazol-4-yl)-3-pyridyl]methyl]-N-tetrahydropyran-4-yl-thieno[2,3-b]pyridine-6-carboxamide], the Emax came to 38.6% and the EC50 stood at 0.01 µM.

Take `Cn1cc(-c2ccc(Cc3cc(C(=O)NC4CCOC(C)(C)C4)nc4sccc34)cn2)cn1` (stereo not drawn) [Compound 115, N-(2,2-dimethyltetrahydropyran-4-yl)-4-[[6-(1-methylpyrazol-4-yl)-3-pyridyl]methyl]thieno[2,3-b]pyridine-6-carboxamide]: the Emax came to 59.7% and the 50% effective concentration (EC50) turned out to be 0.05 µM.

For the compound `CC1CC(NC(=O)c2cc(Cc3ccc(-c4cnn(C)c4)nc3)c3ccsc3n2)CC(C)O1` (stereo not drawn) [Compound 116, N-(2,6-dimethyltetrahydropyran-4-yl)-4-[[6-(1-methylpyrazol-4-yl)-3-pyridyl]methyl]thieno[2,3-b]pyridine-6-carboxamide], the maximal response (Emax) was 54.8% and the EC50 came out at 0.05 µM.

Regarding `Cn1cc(-c2ccc(Cc3cc(C(=O)NC4CCOCC4(C)C)nc4sccc34)cn2)cn1` (stereo not drawn) [Compound 117, N-(3,3-dimethyltetrahydropyran-4-yl)-4-[[6-(1-methylpyrazol-4-yl)-3-pyridyl]methyl]thieno[2,3-b]pyridine-6-carboxamide], the Emax came to 55.7% and the concentration for a half-maximal effect (EC50) came to 0.15 µM.

As for `CC1COCCC1NC(=O)c1cc(Cc2ccc(-c3cnn(C)c3)nc2)c2ccsc2n1` (stereo not drawn) [Compound 118, 4-[[6-(1-methylpyrazol-4-yl)-3-pyridyl]methyl]-N-(3-methyltetrahydropyran-4-yl)thieno[2,3-b]pyridine-6-carboxamide], the Emax worked out at 52.2% and the EC50 was 0.07 µM.

On to `Cn1cc(-c2ccc(Cc3cc(C(=O)NCC4CCOCC4)nc4sccc34)cn2)cn1` [Compound 119, 4-[[6-(1-methylpyrazol-4-yl)-3-pyridyl]methyl]-N-(tetrahydropyran-4-ylmethyl)thieno[2,3-b]pyridine-6-carboxamide], for which the Emax worked out at 54.8% and the EC50 was determined as 0.06 µM.

On to `Cn1cc(-c2ccc(Cc3cc(C(=O)N[C@H]4CCOC4)nc4sccc34)cn2)cn1` [Compound 120, 4-[[6-(1-methylpyrazol-4-yl)-3-pyridyl]methyl]-N-[(3S)-tetrahydrofuran-3-yl]thieno[2,3-b]pyridine-6-carboxamide], for which the Emax turned out to be 56.9% and the EC50 amounted to 0.08 µM.

For the compound `Cn1cc(-c2ccc(Cc3cc(C(=O)N[C@@H]4CCOC4)nc4sccc34)cn2)cn1` [Compound 121, 4-[[6-(1-methylpyrazol-4-yl)-3-pyridyl]methyl]-N-[(3R)-tetrahydrofuran-3-yl]thieno[2,3-b]pyridine-6-carboxamide], the Emax turned out to be 58.9% and the EC50 amounted to 0.55 µM.

`Cn1cc(-c2ccc(Cc3cc(C(=O)NCC4CCOC4)nc4sccc34)cn2)cn1` (stereo not drawn) [Compound 122, 4-[[6-(1-methylpyrazol-4-yl)-3-pyridyl]methyl]-N-(tetrahydrofuran-3-ylmethyl)thieno[2,3-b]pyridine-6-carboxamide]: the Emax is 57.5% and the EC50 was found to be 0.7 µM.

With `Cn1cc(-c2ccc(Cc3cc(C(=O)NC4CC5(COC5)C4)nc4sccc34)cn2)cn1` [Compound 123, 4-[[6-(1-methylpyrazol-4-yl)-3-pyridyl]methyl]-N-(2-oxaspiro[3.3]heptan-6-yl)thieno[2,3-b]pyridine-6-carboxamide], the Emax is 56.2% and the EC50 is 0.1 µM.

Consider `Cn1cc(-c2ccc(Cc3cc(C(=O)NC4COC4)nc4sccc34)cn2)cn1` [Compound 124, 4-[[6-(1-methylpyrazol-4-yl)-3-pyridyl]methyl]-N-(oxetan-3-yl)thieno[2,3-b]pyridine-6-carboxamide], for which the Emax was 53.5% and the EC50 was determined as 0.04 µM.

Turning to `Cn1cc(-c2ccc(Cc3cc(C(=O)NC4CC(F)C4)nc4sccc34)cn2)cn1` (stereo not drawn) [Compound 125, N-(3-fluorocyclobutyl)-4-[[6-(1-methylpyrazol-4-yl)-3-pyridyl]methyl]thieno[2,3-b]pyridine-6-carboxamide], the Emax turned out to be 58.6% and the half-maximal effective concentration (EC50) came to 0.94 µM.

As to `Cn1cc(-c2ccc(Cc3cc(C(=O)NC4CC(F)(F)C4)nc4sccc34)cn2)cn1` [Compound 126, N-(3,3-difluorocyclobutyl)-4-[[6-(1-methylpyrazol-4-yl)-3-pyridyl]methyl]thieno[2,3-b]pyridine-6-carboxamide], the Emax is 63.4% and the EC50 is 0.27 µM.

Take `COCCNC(=O)c1cc(Cc2ccc(-c3cnn(C)c3)nc2)c2ccsc2n1` [Compound 127, N-(2-methoxyethyl)-4-[[6-(1-methylpyrazol-4-yl)-3-pyridyl]methyl]thieno[2,3-b]pyridine-6-carboxamide]: the Emax worked out at 63.8% and the EC50 stood at 0.27 µM.

Regarding `COCC(C)NC(=O)c1cc(Cc2ccc(-c3cnn(C)c3)nc2)c2ccsc2n1` (stereo not drawn) [Compound 128, N-(2-methoxy-1-methyl-ethyl)-4-[[6-(1-methylpyrazol-4-yl)-3-pyridyl]methyl]thieno[2,3-b]pyridine-6-carboxamide], the Emax is 60.8% and the EC50 was determined as 0.16 µM.

For the compound `Cc1nc(-c2ccc(Cc3cc(C(=O)N[C@H]4CCCC[C@@H]4O)nc4sccc34)cc2)co1` [Compound 129, N-[(1S,2S)-2-hydroxycyclohexyl]-4-[[4-(2-methyloxazol-4-yl)phenyl]methyl]thieno[2,3-b]pyridine-6-carboxamide], the Emax was 63.9% and the EC50 came to 0.47 µM.

For `Cc1nc(-c2ccc(Cc3cc(C(=O)N[C@H]4CCOC[C@@H]4O)nc4sccc34)cc2)co1` [Compound 130, N-[(3R,4S)-3-hydroxytetrahydropyran-4-yl]-4-[[4-(2-methyloxazol-4-yl)phenyl]methyl]thieno[2,3-b]pyridine-6-carboxamide], the Emax came to 41.4% and the EC50 was determined as 0.06 µM.

`Cc1nc(-c2ccc(Cc3cc(C(=O)NC4CCOC(C)(C)C4)nc4sccc34)cc2)co1` (stereo not drawn) [Compound 131, N-(2,2-dimethyltetrahydropyran-4-yl)-4-[[4-(2-methyloxazol-4-yl)phenyl]methyl]thieno[2,3-b]pyridine-6-carboxamide]: the Emax stood at 33.3%.

For the compound `Cc1nc(-c2ccc(Cc3cc(C(=O)NC4CC(C)OC(C)C4)nc4sccc34)cc2)co1` (stereo not drawn) [Compound 132, N-(2,6-dimethyltetrahydropyran-4-yl)-4-[[4-(2-methyloxazol-4-yl)phenyl]methyl]thieno[2,3-b]pyridine-6-carboxamide], the Emax came to 58.9% and the EC50 turned out to be 1.05 µM.
